Tests used:
HHV-8 = assay: quantitative PCR-based (Taqman) assay for agents active against HHV-8 in TPA-induced BCBL-1 cells; type: cell-based, human herpesvirus 8
Procedure: 3. […] Samples were incubated at 37° C. for 30 minutes.
4. […] Total reaction volumes were 50 μL.

[1] = XTT-tetrazolium assay of compound toxicity to host cells; type: cell-based; details: human; Table IV, six concentrations; read-out: TC50
Procedure: Culturing these cells in the presence of phobol ester induces a lytic infection cycle, resulting in the release of viral particles into the medium. Compound efficacy in this proposed assay was determined using the Taqman PCR technology, and compound toxicity to host cells was assessed using an XTT-tetrazolium assay.
1. BCBL-1 cells were counted by the trypan blue dye exclusion method, and the cell count/mL was determined. Cells were pelleted by centrifugation and washed once with PBS to minimize the basal level of virus released from untreated cells which spontaneously enter the lytic cycle and release virus.
2. Cells were resuspended in fresh media and adjusted to a cell density of 1×10^5 per mL. Cells were then plated in the interior wells of 96-well round-bottom microtiter plates in a volume of 50 μL per well.
3. The phorbol ester TPA was added to appropriate wells in a volume of 50 μL per well to yield a final concentration of 20 ng/mL. Medium was added in place of TPA in three wells to serve as a negative control.
4. Test compounds were diluted in DMSO to a stock concentration which is 400× the desired high concentration. These compounds were further diluted in complete medium in 1.2 mL titertubes to yield a solution which is 2× the desired high concentration. […]
2. […] Plates were read on UVMax microtiter plate reader at a wavelength of 450/650 nm.

[2] = target: HIV reverse transcriptase (Human immunodeficiency virus type 1 group M subtype B, UniProt P03366); details: HIV RT; cited from earlier work
[3] = in vivo; cited from earlier work
Cytomegalovirus (CMV) = details: clinical trials, AIDS patients; cited from earlier work

Row | Compound | TI (therapeutic index) (HHV-8) | IC50 (HHV-8; Human gammaherpesvirus 8, BCBL1, Table IV, six concentrations, Foscarnet value is average of six separate tests) [µM] | Activity (HHV-8; Table IV, by TI) | CC50 at 6 days [1] [µM] | IC50 [2] [µM] | oral bioavailability [3] | efficacy in treatment of CMV infection (Cytomegalovirus (CMV)) | nephrotoxicity (Cytomegalovirus (CMV)) | antiviral activity against HHV-8 (in words) (HHV-8; bioassay with HHV-8)
1 | O=C(O)P(=O)(O)O [Foscarnet, Trisodium phosphonoformate] | >38.9 | 7.7 | active | > 300 | ~1 | low | efficacious | reversible nephrotoxicity | 
2 | CCCCCCCCCCCCCCOC(=O)P(=O)([O-])OC.[Na+] [ID# 8] |  |  |  |  |  |  |  |  | moderate to relatively high antiviral activity

From patent US6444837B1, “Synthesis and antiviral activity of a series of pyrophosphate analogs” (University of Southern California, priority 1998, dated 2002)
